Measured values as given in publication PMC10004634 (PLOS ONE, 2023).
pIC50: −log10 of the molar value. Where two headings read alike, the source gives them in different places.

What was measured:
PIP5K2B = biological target: T1, PIP5K2B (Homo sapiens, UniProt P78356); experiment: biochemical; set-up: KINOMEscan scanMAX competition binding, DNA-tagged kinases, qPCR read-out, percent control at 300 nM
T1 construct: gene PIP4K2B

FYN = FYN (Homo sapiens, UniProt P06241); experiment: biochemical; set-up: KINOMEscan scanMAX competition binding, DNA-tagged kinases, qPCR read-out, percent control at 300 nM
NDR1 = biological target: T2, NDR1 (Homo sapiens, UniProt Q15208); experiment: biochemical; set-up: KINOMEscan scanMAX competition binding, DNA-tagged kinases, qPCR read-out, percent control at 300 nM
T2 construct: gene STK38

EGFR(L858R,T790M) = EGFR(L858R,T790M) (Homo sapiens, UniProt P00533, L858R/T790M); experiment: biochemical; set-up: KINOMEscan scanMAX competition binding, DNA-tagged kinases, qPCR read-out, percent control at 300 nM
EPHA8 = EPHA8 (Homo sapiens, UniProt P29322); experiment: biochemical; set-up: KINOMEscan scanMAX competition binding, DNA-tagged kinases, qPCR read-out, percent control at 300 nM
CSNK1G1 = CSNK1G1 (Homo sapiens, UniProt Q9HCP0); experiment: biochemical; set-up: KINOMEscan scanMAX competition binding, DNA-tagged kinases, qPCR read-out, percent control at 300 nM
MUSK = MUSK (Homo sapiens, UniProt O15146); experiment: biochemical; set-up: KINOMEscan scanMAX competition binding, DNA-tagged kinases, qPCR read-out, percent control at 300 nM
[1] = biological target: T3, RPS6KA4(Kin.Dom.2-C-terminal) (Homo sapiens, UniProt O75676); experiment: biochemical; set-up: KINOMEscan scanMAX competition binding, DNA-tagged kinases, qPCR read-out, percent control at 300 nM
T3 construct: Kin.Dom.2-C-terminal

TNNI3K = TNNI3K (Homo sapiens, UniProt Q59H18); experiment: biochemical; set-up: KINOMEscan scanMAX competition binding, DNA-tagged kinases, qPCR read-out, percent control at 300 nM
PCTK3 = biological target: T4, PCTK3 (Homo sapiens, UniProt Q07002); experiment: biochemical; set-up: KINOMEscan scanMAX competition binding, DNA-tagged kinases, qPCR read-out, percent control at 300 nM
T4 construct: gene CDK18

PCTK2 = biological target: T5, PCTK2 (Homo sapiens, UniProt Q00537); experiment: biochemical; set-up: KINOMEscan scanMAX competition binding, DNA-tagged kinases, qPCR read-out, percent control at 300 nM
T5 construct: gene CDK17

YSK4 = biological target: T6, YSK4 (Homo sapiens, UniProt Q56UN5); experiment: biochemical; set-up: KINOMEscan scanMAX competition binding, DNA-tagged kinases, qPCR read-out, percent control at 300 nM
T6 construct: gene MAP3K19

LCK = LCK (Homo sapiens, UniProt P06239); experiment: mobility shift assay (MSA)
BTK = BTK (Homo sapiens, UniProt Q06187); experiment: KINOMEscan binding assay; conditions: 300 nM; read-out: inhibition of kinase binding (KINOMEscan)
[2] = test system: BT system (B cells, peripheral blood mononuclear cells); experiment: BioMAP Diversity PLUS profiling, BT system; format: cell-based, human; conditions: 120, 370, 1100, 3300 nM
Protocol: In brief, cultures with one or more primary cell types from healthy human donors were treated with sets of stimulators specific to the cell subsets, and the optimized biomarker readouts for each system were measured by ELISA and other techniques, as listed in S1 Table. The assays included positive and negative controls as well as vehicle control. Results are presented as the log-transformed ratio of biomarker readouts for tirabrutinib-treated samples to vehicle controls.

[3] = read-out: Percent control / Acalabrutinib
[4] = read-out: Percent control / Tirabrutinib
[5] = read-out: Percent control / Zanubrutinib

Chain of TNNI3K (Q59H18 whole entry): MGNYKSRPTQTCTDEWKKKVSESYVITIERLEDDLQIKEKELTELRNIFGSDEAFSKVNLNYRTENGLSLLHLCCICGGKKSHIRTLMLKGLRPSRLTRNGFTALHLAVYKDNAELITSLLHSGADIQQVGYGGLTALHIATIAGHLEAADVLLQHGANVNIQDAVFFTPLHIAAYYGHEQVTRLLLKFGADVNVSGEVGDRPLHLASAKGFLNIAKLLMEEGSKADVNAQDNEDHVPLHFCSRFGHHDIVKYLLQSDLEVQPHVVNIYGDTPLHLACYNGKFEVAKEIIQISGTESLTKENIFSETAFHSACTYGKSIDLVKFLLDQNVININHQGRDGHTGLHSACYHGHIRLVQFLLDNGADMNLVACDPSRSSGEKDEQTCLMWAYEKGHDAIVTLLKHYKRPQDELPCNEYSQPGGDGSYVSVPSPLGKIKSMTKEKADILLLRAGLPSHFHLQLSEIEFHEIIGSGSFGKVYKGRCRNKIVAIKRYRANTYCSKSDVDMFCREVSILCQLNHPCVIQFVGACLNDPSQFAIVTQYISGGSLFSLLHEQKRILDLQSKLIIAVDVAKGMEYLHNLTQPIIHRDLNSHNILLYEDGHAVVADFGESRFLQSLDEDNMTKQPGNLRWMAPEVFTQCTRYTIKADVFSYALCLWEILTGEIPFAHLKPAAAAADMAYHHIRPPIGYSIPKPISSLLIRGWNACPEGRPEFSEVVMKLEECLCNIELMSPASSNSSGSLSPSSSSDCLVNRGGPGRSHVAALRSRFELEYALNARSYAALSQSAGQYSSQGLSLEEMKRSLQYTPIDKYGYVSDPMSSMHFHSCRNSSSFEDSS
Chain of CSNK1G1 (Q9HCP0 whole entry): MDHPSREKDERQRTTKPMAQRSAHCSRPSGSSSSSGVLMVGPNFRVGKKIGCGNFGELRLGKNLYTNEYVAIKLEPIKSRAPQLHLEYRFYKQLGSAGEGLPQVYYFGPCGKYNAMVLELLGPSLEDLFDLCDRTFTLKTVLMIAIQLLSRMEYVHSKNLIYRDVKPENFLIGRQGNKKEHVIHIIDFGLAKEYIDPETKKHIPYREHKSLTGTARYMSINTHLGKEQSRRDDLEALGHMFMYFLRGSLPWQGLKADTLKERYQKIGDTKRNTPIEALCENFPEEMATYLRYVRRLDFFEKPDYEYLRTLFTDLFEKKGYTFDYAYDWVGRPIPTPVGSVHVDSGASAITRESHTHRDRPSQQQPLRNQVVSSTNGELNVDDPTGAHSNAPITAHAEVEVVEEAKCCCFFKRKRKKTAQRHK
Chain of LCK (P06239 whole entry): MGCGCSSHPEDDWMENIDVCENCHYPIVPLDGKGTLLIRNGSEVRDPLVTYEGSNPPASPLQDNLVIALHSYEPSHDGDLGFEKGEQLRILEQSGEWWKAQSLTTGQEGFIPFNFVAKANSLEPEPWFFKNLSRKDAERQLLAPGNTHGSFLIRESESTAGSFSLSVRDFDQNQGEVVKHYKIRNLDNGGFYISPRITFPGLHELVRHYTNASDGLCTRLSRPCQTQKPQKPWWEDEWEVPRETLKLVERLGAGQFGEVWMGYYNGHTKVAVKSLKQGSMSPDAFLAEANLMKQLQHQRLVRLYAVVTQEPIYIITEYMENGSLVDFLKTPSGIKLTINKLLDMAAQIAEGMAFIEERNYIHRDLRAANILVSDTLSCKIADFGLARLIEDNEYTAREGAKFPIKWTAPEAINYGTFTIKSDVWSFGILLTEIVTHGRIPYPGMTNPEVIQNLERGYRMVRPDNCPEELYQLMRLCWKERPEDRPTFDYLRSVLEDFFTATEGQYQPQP
T3 sequence (O75676 whole entry): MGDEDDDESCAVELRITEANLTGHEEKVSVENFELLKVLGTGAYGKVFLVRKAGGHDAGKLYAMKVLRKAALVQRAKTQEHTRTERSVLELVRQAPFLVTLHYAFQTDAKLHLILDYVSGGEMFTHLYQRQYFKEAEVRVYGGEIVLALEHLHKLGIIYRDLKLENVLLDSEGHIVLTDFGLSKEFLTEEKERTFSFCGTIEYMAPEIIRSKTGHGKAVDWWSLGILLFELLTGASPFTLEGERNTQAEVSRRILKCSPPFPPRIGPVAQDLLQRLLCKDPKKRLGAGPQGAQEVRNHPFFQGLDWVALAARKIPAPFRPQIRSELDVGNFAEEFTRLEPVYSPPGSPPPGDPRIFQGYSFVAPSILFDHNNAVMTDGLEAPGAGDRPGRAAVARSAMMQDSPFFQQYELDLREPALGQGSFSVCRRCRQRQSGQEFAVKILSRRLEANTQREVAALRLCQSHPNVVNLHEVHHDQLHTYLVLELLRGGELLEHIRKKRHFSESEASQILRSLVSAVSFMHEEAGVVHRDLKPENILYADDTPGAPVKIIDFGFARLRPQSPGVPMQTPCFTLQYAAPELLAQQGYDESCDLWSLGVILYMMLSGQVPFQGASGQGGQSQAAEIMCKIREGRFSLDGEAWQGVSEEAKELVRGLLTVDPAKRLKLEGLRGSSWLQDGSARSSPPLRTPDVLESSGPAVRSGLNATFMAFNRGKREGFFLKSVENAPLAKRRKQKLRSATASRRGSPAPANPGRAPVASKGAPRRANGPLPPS
T2 sequence (Q15208 whole entry): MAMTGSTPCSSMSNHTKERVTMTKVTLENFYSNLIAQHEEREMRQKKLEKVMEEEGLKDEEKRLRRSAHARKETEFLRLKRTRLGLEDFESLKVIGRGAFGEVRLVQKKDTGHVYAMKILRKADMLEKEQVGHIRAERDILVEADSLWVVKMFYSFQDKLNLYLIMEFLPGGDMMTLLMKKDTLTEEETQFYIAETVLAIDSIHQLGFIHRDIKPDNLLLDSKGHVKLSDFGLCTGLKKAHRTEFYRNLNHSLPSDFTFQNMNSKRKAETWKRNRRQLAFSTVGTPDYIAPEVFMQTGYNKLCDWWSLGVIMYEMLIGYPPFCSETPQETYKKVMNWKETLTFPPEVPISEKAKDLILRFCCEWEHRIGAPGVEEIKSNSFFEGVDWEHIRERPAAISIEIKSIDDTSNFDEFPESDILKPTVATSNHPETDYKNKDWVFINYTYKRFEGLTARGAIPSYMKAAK
T5 sequence (Q00537 whole entry): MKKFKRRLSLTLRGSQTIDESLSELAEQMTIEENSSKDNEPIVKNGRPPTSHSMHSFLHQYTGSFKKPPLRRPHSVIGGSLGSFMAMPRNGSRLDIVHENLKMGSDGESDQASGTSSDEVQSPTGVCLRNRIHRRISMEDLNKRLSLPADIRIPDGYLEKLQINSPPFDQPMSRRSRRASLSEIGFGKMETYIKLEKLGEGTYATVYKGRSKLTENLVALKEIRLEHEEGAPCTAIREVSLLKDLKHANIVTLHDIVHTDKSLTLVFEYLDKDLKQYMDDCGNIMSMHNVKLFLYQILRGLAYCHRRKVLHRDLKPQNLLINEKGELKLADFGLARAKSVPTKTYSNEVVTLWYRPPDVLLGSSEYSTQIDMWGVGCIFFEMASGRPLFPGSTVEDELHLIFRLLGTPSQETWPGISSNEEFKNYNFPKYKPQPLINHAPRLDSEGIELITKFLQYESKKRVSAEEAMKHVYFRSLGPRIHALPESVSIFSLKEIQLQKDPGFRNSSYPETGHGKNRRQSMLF
Chain of EGFR(L858R,T790M) (P00533 whole entry T790M/L858R): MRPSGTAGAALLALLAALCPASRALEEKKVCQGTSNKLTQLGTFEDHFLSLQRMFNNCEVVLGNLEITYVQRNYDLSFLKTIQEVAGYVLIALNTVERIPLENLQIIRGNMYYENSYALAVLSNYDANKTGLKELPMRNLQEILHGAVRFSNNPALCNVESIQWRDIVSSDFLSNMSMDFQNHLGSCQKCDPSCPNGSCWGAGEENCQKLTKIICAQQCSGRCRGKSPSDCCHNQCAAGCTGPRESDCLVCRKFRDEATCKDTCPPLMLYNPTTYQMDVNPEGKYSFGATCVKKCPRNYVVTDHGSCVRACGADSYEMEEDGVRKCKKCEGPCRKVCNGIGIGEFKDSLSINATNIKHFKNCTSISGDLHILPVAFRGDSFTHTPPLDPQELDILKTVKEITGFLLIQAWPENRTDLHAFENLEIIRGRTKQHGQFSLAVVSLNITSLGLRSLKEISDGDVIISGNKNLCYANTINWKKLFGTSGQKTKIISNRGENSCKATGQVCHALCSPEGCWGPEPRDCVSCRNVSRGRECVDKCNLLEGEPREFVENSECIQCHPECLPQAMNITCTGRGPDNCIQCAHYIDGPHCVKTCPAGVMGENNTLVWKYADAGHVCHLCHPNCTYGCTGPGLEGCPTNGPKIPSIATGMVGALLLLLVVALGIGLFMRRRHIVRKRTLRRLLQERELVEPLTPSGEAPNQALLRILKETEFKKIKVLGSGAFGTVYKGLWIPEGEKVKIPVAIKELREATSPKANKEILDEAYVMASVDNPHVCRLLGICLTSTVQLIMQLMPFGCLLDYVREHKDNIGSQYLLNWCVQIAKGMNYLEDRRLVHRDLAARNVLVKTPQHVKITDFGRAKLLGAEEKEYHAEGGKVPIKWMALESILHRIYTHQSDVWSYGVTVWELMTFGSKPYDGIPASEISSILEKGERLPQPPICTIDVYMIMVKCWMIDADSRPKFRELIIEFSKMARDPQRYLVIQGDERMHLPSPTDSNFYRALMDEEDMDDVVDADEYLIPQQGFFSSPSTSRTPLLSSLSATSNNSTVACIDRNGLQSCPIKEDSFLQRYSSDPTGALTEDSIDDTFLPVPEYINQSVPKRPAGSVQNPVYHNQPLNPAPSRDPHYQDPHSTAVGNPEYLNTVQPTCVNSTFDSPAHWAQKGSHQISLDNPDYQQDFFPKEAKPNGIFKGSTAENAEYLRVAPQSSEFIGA

Compound `CC#CC(=O)N1CCC[C@H]1c1nc(-c2ccc(C(=O)Nc3ccccn3)cc2)c2c(N)nccn12` [Acalabrutinib] has a remaining binding at 0.3 µM (PIP5K2B; [3]) of 93%, a remaining binding at 0.3 µM (FYN; [3]) of 95% and a remaining binding at 0.3 µM (NDR1; [3]) of 97%. The remaining binding at 0.3 µM (EGFR(L858R,T790M); [3]) was 97%, the remaining binding at 0.3 µM (EPHA8; [3]) was 96% and the remaining binding at 0.3 µM (CSNK1G1; [3]) was 90%. For the same compound, the remaining binding at 0.3 µM (MUSK; [3]) was 82%, the remaining binding at 0.3 µM [1, 3] was 96% and the remaining binding at 0.3 µM (TNNI3K; [3]) was 66%. The remaining binding at 0.3 µM (PCTK3; [3]) was 90%, the remaining binding at 0.3 µM (PCTK2; [3]) was 97% and the remaining binding at 0.3 µM (YSK4; [3]) was 74%. It also gave a pIC50 (LCK) of 5.28.
In the case of `C=CC(=O)N1CCC[C@@H](n2nc(-c3ccc(Oc4ccccc4)cc3)c3c(N)ncnc32)C1` [Ibrutinib], the remaining binding at 0.3 µM (FYN; read-out: Percent control / Ibrutinib) was 19%.
With `CC#CC(=O)N1CC[C@@H](n2c(=O)n(-c3ccc(Oc4ccccc4)cc3)c3c(N)ncnc32)C1` [Tirabrutinib] the inhibition at 0.3 µM (BTK) was 97%, the “effect on the BT system (B-cell growth, production of IgG, IL-6, IL-17A, TNFα)” value [2] was “concentration-dependent inhibitory effect” and the remaining binding at 0.3 µM (EGFR(L858R,T790M); [4]) was 100%. For the same compound, the remaining binding at 0.3 µM (TNNI3K; [4]) was 91% and the pIC50 (LCK) was 6.10.
`C=CC(=O)N1CCC([C@@H]2CCNc3c(C(N)=O)c(-c4ccc(Oc5ccccc5)cc4)nn32)CC1` [Zanubrutinib] gave a remaining binding at 0.3 µM (PIP5K2B; [5]) of 88%, a remaining binding at 0.3 µM (NDR1; [5]) of 97% and a remaining binding at 0.3 µM (EPHA8; [5]) of 90%. The remaining binding at 0.3 µM (CSNK1G1; [5]) was 91%, the remaining binding at 0.3 µM (MUSK; [5]) was 96% and the remaining binding at 0.3 µM [1, 5] was 100%. It also gave a remaining binding at 0.3 µM (PCTK3; [5]) of 92%, a remaining binding at 0.3 µM (PCTK2; [5]) of 82% and a remaining binding at 0.3 µM (YSK4; [5]) of 100%.
